The results in this text go back to BindingDB's records for doi:10.1016/j.bmcl.2006.01.105 (Wyeth Research, 2006).

A word on the IC50: it is the concentration that inhibits the measured activity by half. Low values mean inhibition by little substance, high ones a need for much substance.

A short description of the experiment: Antiviral activity against Hepatitis C virus replicon in Huh7 cells. For orientation: In antiviral work, replicon cells carry a viral genome segment that copies itself.

The compound `CCCC1(C(=O)O)CCc2c1[nH]c1c(Cl)ccc(Cl)c21` (stereo unspecified) [5,8-dichloro-3-propyl-1,2,3,4-tetrahydrocyclopenta[b]indole-3-carboxylic acid] yielded an IC50 of 27 µM.
